Positions of bridges follow the written chain, without caps; N, C: chain ends. Residues, ends and D or L forms follow the SMILES beside them. *: point of attachment. X1 = CCc1c2c(nc3ccc(O)cc13)-c1cc3c(c(=O)n1C2)COC(=O)[C@@]3(CC)OC(=O)CCC(=O)*; GABA = NCCCC(=O)O

The test system of series [1] is EGFR+ H1299 cells. Put plainly: XTT cell viability / cytotoxicity, H1299 cells. The format is cell-based. To be noted: 6 h pre-incubation, wash. As for the experimental part: (§1) Cell proliferation in the presence of P6-SN38 was evaluated using a commercial XTT assay kit (Enhanced Cell Counting Kit 8 (WST-8/CCK8); Elabscience, Houston, TX, USA). A total of 10^4 cells per well were seeded in 96-well plates and incubated overnight in complete RPMI growth medium. After washing, the cells were cultured in 100 µL of fresh medium containing varying concentrations of free SN38 or PDC for 3 h and 6 h (pre-incubation). Following this, the cells were washed again and incubated for an additional 24, 48, and 72 h. The XTT reagent was then added to each well, and the plate was incubated for 2 h at 37 °C. For cytotoxicity analysis, absorbance was measured at 450 nm and 630 nm using a TECAN Infinite M200 ELISA reader (Citrine Solutions, Oranit, Israel). All assays were performed in triplicate, and each experiment was repeated three times.
(§2) Figure 2 Cell viability after 6 h of pre-incubation of EGFR+ H1299 (A) and EGFR− HEK293 (B) cell lines with P6-SN38 and SN38. H1299 and HEK293 cells were cultured in a 96-well plate and pre-incubated with six different concentrations (0.5, 2.5, 5, 10, 15, and 25 μM) of P6-SN38 or SN38 for 6 h, washed out, and incubated additionally for 24 h, 48 h, and 72 h. Cell viability was assessed using an XTT assay, with the viability of untreated control cells set at 100%. The viability of treated cells was expressed as a percentage relative to the control. Data are presented as the mean ± standard deviation (SD).
(Tetrazolium dyes change colour on reduction, which living cells bring about.)

In series [2] the test system is EGFR− HEK293 cells. Put plainly: XTT cell viability / cytotoxicity, HEK293 cells. It counts as cell-based. The conditions noted are these: 6 h pre-incubation, wash; for effect on EGFR− HEK-293 cells: further incubation, in words; for IC50: HEK293, XTT. As for the experimental part:
as §1, §2

Series [3] has as its system H1299 cells. Briefly: Apoptosis assay, Annexin V-FITC/PI flow cytometry. The conditions noted are these: 2.5 µM, 6 h pre-treatment, wash, mean ± SD; for apoptotic rate / late-stage apoptosis rate: 24 h; for apoptosis / late apoptosis rate: 48 h. The format is cell-based. As for the experimental part:
H1299 cells were seeded at the concentration of 5 × 10^4 cells/mL in the RPMI 1640 growth medium and incubated in 6-well plates at 37 °C under 5% CO2. The next day, the medium was removed, and P6-SN38, or free SN38 (2.5 µM), in fresh medium was added and incubated for 6 h. Then, the medium was removed by washing out, fresh medium was added, and the plates were incubated for an additional 24 and 48 h. The cells were collected with 0.25% trypsin/EDTA solution and washed with PBS twice at 1500 rpm for 5 min. After that, Annexin-FITC (5 µM) and propidium Iodide (PI, 5 µM) were added (both from Abcam, Cambridge, UK). The cells were incubated for 15 min in the dark, and the samples (2 × 10^4 cells) were analyzed by flow cytometry.
SN38, a potent topoisomerase I inhibitor, disrupts DNA replication, leading to cell cycle arrest and apoptosis. To evaluate and compare the effects of peptide-bound SN38 (P6-SN38) and free SN38 on DNA damage and cell cycle distribution (Section 3.4), H1299 cells were pre-treated with both compounds at a concentration of 2.5 µM for 6 h, followed by washing and continued incubation for 24 or 48 h (Figure 3).
Figure 3 Apoptosis of H1299 cells estimated through cell survival percentage by binding with annexin V-FITC. H1299 cells were pre-incubated with P6-SN38 and SN38 as described in Section 2.6. Cells were stained with annexin and PI and analyzed by flow cytometry; * p < 0.05, *** p < 0.001, **** p < 0.0005. “ns” means non-significant.
(In general: A flow cytometer gives signals particle by particle.)

Series [4] concerns H1299 cells. Briefly: Cell cycle analysis, PI flow cytometry. The format is cell-based. The conditions noted are these: 2.5 µM, 6 h pre-treatment, in words. As for the experimental part: Cell cycle analysis was conducted using a cell cycle detection kit (Biotopped, Huangshan, China). H1299 cells were seeded in 5 × 10^4 cells/mL concentration in the complete growth medium. (RPMI 1640) Incubation was performed in 6-well plates at 37 °C under 5% CO2. The next day, the medium was removed, and the fresh medium containing P6-SN38 or free SN38 (2.5 µM) was added and incubated for 6 h. Then, the medium was removed by washing, a fresh medium was added, and the cells were incubated for an additional 24 and 48 h. Then, the cells were trypsinized and washed with PBS twice at 1500 rpm for 5 min. Cells were fixed in 66% ethanol for 2 h. Then, cells were incubated with 0.2 mL buffer solution containing PI (25 μL) and RNase A (10 μL) after being rinsed with cold PBS (according to the manufacturer’s protocol). Finally, the cell cycle was analyzed by Beckman CytoFLEX FCM (Bio-Rad Laboratories, Inc., Rishon Le Zion, Israel).
To investigate whether the observed growth inhibition and apoptosis were mediated by cell cycle arrest, we examined the effects of P6-SN38 and free SN38 on cell cycle progression in NSCLC H1299 cells. The cells were pre-treated with the compounds for 6 h, followed by an additional 24 or 48 h incubation period (Figure 4A,B).
Figure 4 Cell cycle arrest analysis of treatment with SN38 and P6-SN38. Cell cycle distribution of H1299 cells detected by flow cytometry after 24 h (A) and 48 h (B) treatment with SN38 and P6-SN38 at 2.5 µM. A total of 1 × 10^6 cells were pre-incubated with P6-SN38 or SN38 for 6 h, followed by additional incubation for 24 h and 48 h. The cells were then stained with propidium iodide (PI) and analyzed by flow cytometry (C). The data in A and B are presented as the mean ± SD (n = 3). “ns” means non-significant. * p < 0.05, *** p < 0.001, **** p < 0.0005. “ns” means non-significant. TEXT PRINTED IN THE PICTURE: (C) 01-H1299_P6_24h-B9.fcs: %G1 : 6.76; %S : 52.1; %G2 : 40.6 | (C) 01-H1299_P6_48h-D8.fcs: %G1 : 9.76; %S : 47.2; %G2 : 40.6 | (C) 01-H1299_SN_24h-A9.fcs: %G1 : 0; %S : 39.4; %G2 : 54.0 | (C) 01-H1299_SN_48h-C8.fcs: %G1 : 9.66; %S : 61.4; %G2 : 27.8 DOUBTS OF THE COPYIST ABOUT THIS PICTURE: 01-H1299_P6_24h-B9.fcs, %G1: small print, 6.76 could be 8.76 or 6.78 / 01-H1299_P6_24h-B9.fcs, %G2: small print, 40.6 could be 40.8 / 01-H1299_P6_48h-D8.fcs, %G1: small print, 9.76 could be 9.78 / 01-H1299_P6_48h-D8.fcs, %G2: small print, 40.6 could be 40.8 / 01-H1299_SN_24h-A9.fcs, %S: small print, 39.4 could be 38.4 / 01-H1299_SN_48h-C8.fcs, %G1: small print, 9.66 could be 9.68 or 9.86 / 01-H1299_SN_48h-C8.fcs, %G2: small print, 27.8 could be 27.6 / The untreated samples (01-H1299_24h_UT-A6.fcs, 01-H1299_UT_48h-C6.fcs) were left out because they stand for no substance. The RMSD values were left out as fit statistics.

The subject of series [5] is H1299 (EGFR+) tumor. Briefly: In vivo tumor growth inhibition, H1299 (EGFR+) xenograft. On the set-up: species or system NOD/SCID (nude) mice. The conditions noted are these: 3 times, N = 4. As for the experimental part: (§3) Animal protocols were approved by the Institutional Animal Care and Use Committee at Ariel University. NOD/SCID (nude) mice were injected with H1299 in the right flank and K562 cells in the left flank (10^6 cells each), so that each mouse developed dual H1299 and K562 xenografts.
(§4) When tumors reached~50 mm^3, mice were injected via tail vein (i.v.).
(§5) The mice’s weight and tumor volumes were measured every 2 days. The tumor sizes were measured by using the hands-on digital caliper method, and the tumor volumes were calculated according to the Formula (1). Tumor volume (mm^3) = 0.5 × Tumor Length × Tumor Width^2(1)
(§6) The resected tumors are shown in (C). N = 4 in each group. * p < 0.05, ** p < 0.005, *** p < 0.001, **** p < 0.0001.

Series [6] concerns K562 (EGFR−) tumor. Briefly: In vivo tumor growth inhibition, K562 (EGFR−) xenograft. The arrangement: species or system NOD/SCID (nude) mice. The conditions noted are these: 10 mg/kg i.v. once a week, 3 times. As for the experimental part: as §3, §4, §5
Figure 6 In vivo effect of P6-SN38 conjugate in NSCLC model (10 mg/kg, once a week). […] The resected tumors are shown in (C). N = 4 in each group. * p < 0.05, ** p < 0.005, *** p < 0.001, **** p < 0.0001.

Series [7] can be described thus: Mice body weight during efficacy study. To be noted: i.v. once a week, 3 times; P6-SN38 10 mg/kg, Erbitux 10 mg/kg, free SN38 3 mg/kg; 18 days; N = 4. The format is in vivo, NOD/SCID (nude) mice. As for the experimental part: as §4, §5, §6

The term IC50 denotes the midpoint of a concentration-inhibition curve. High values mean a need for much substance, low ones inhibition by little substance. As to `CCc1c2c(nc3ccc(O)cc13)-c1cc3c(c(=O)n1C2)COC(=O)[C@@]3(CC)OC(=O)CCC(=O)NCCCC(=O)N[C@H]1CSSC[C@@H](C(N)=O)NC(=O)[C@H]([C@@H](C)CC)NC(=O)[C@H](Cc2ccc(O)cc2)NC(=O)[C@H](CO)NC(=O)CNC(=O)[C@@H]2CCCN2C(=O)[C@H](C(C)C)NC(=O)[C@H](Cc2c[nH]cn2)NC1=O` [P6-SN38] ({X1-GABA}-CHVPGSYIC-NH2; disulfide 1-9), the concentration for half-maximal inhibition (IC50) in series [1] (48 h incubation) is 2.5 µM; in series [1] (72 h incubation), 0.9 µM; in series [2] (48 h incubation), over 50 µM; in series [2] (72 h incubation), over 50 µM. In series [2], the “effect on EGFR− HEK-293 cells” value was “nearly no effect”. Also, the apoptotic rate in series [3] turned out to be 12.9 ± 4.2%. Moreover, the late-stage apoptosis rate in series [3] turned out to be 14.1 ± 7.3%. The apoptosis in series [3] is 21.48 ± 9.90%. In series [3], the late apoptosis rate was found to be 25.32 ± 10.00%. The “cell cycle phase of arrest” value in series [4] (24 h) was “both the S and G2/M phases”; in series [4] (48 h), “S/G2 phase arrest”. In series [5] (10 mg/kg i.v. once a week, day 18), the H1299 tumor eradication entry was “eradicated completely in 3 out of 4 mice”. For the same molecule, the “effect on growth of K562 (EGFR−) tumors, in words” value in series [6] (18 days) is reported as “did not affect the growth”. This molecule yielded a K562 tumor volume in series [6] (day 18, initial ~50 mm^3, control 1772 ± 265, N = 4) of 1522 ± 561 mm^3. Also, the “mice weight loss, in words” value in series [7] was “minimal weight loss”.

Regarding `CCc1c2c(nc3ccc(O)cc13)-c1cc3c(c(=O)n1C2)COC(=O)[C@]3(O)CC` [SN38], the IC50 in series [1] (48 h incubation) worked out at 0.8 µM; in series [1] (72 h incubation), 0.5 µM; in series [2] (48 h incubation), 4.4 µM; in series [2] (72 h incubation), 2.7 µM. Besides, the “effect on EGFR− HEK-293 cells” value in series [2] is “active in both cell lines”. The apoptotic rate in series [3] turned out to be 16.3 ± 6.4%. Also, in series [3], the late-stage apoptosis rate worked out at 15.2 ± 6.8%. Further, the apoptosis in series [3] is 19.27 ± 5.11%. Besides, the late apoptosis rate in series [3] amounted to 26.80 ± 14.90%. The “cell cycle phase of arrest” value was “G2/M phase arrest” in series [4] (24 h) and “S/G2 phase arrest” in series [4] (48 h). Besides, the “effect on tumor growth, in words” value in series [5] (i.v. once a week, Erbitux 10 mg/kg, free SN38 3 mg/kg, 18 days) is “non-specific tumor reduction”. Further, the “mice weight loss, in words” value in series [7] was “significant weight loss”.

The values are drawn from paper PMC11676734, “Novel Cyclic Peptide–Drug Conjugate P6-SN38 Toward Targeted Treatment of EGFR Overexpressed Non-Small Cell Lung Cancer” (Pharmaceutics, 2024).
